# Legend:
# [1] = pH 6.0
# [2] = not given; remark: listed apart in the source
# [3] = method code SF-HPLC, from DOI: 10.13422/j.cnki.syfjx.2013.03.051
# [4] = not given; remark: listed apart in the source
# [5] = method code SF-HPLC, from DOI: 10.1021/js980008v, PMID: 9758683
# [6] = method code SF-GLC, from DOI: 10.1897/1552-8618(1989)8[499:dowpcf]2.0.co;2
# [7] = method code SF-AS, from DOI: 10.2307/3574491, PMID: 940937; conditions: pH 7.4
# [8] = not given; remark: listed apart in the source
# [9] = method code SF-AS, from DOI: 10.1023/a:1021720128725
# [10] = method code SF, from ISBN: 9780815518525; conditions: pH 7.0
# [11] = method code SF, from ISBN: 9780948404450
# [12] = not given; remark: listed apart in the source
# [13] = not given; remark: listed apart in the source
# [14] = method code SF, from ISBN: 9780444415486
# [15] = not given; remark: listed apart in the source
# [16] = not given; remark: listed apart in the source
# [17] = not given; remark: listed apart in the source
smiles,measurement,setting,value
Nc1ccccc1,logP,,1.08
CC(=O)[C@H]1CC[C@H]2[C@@H]3CCC4=CC(=O)CC[C@]4(C)[C@H]3CC[C@]12C,logD,[1],3.7
Oc1ccccc1,logP,[2],1.6
O=C1C=CC[C@@H]2[C@H]3CCC[N+]4([O-])CCC[C@@H](CN12)[C@@H]34 (stereo not given in full),logP,[3],-0.44
CSc1nc(NC(C)C)nc(NC(C)C)n1,logP,[4],3.36
O=C1NC(c2ccccc2)(c2ccccc2)C(=O)N1CO,logP,[5],2.23
CCc1ccc2c(c1)C(=O)c1ccccc1C2=O,logP,[6],4.37
O=C1NC(=O)C(c2ccccc2)(c2ccccc2)N1,logP,[5],2.21
COC(=O)CCn1c(C)cnc1[N+](=O)[O-],logD,[7],-0.25
OCCN(CCO)CCO,logP,[8],-1.32
CCCCNCCCC,logP,[8],2.68
Clc1cc(Cl)c(Cl)cc1Cl,logP,[6],4.6
Nc1nc2c(ncn2COCCO)c(=O)[nH]1,logP,[9],-1.44
CNC(=O)N(C)c1nnc(C(C)(C)C)s1,logD,[10],1.79
O=[N+]([O-])c1nccn1CC(O)CO (stereo not given),logD,[7],-0.96
OCCOCCOCCOCCO,logP,[8],-1.38
CCCC(=O)OCN1C(=O)NC(c2ccccc2)(c2ccccc2)C1=O,logP,[5],3.9
c1ccc(Oc2cccc(-c3ccccc3)c2)cc1,logP,[8],5.55
Cc1cn2c(=O)c3c(nc2[nH]1)N(COCCO)C(Br)N3 (stereo not given),logP,[9],-0.11
CCS(=O)c1sc(C#N)c(Cl)c1C#N (stereo not given),logP,[11],2.54
O=C(O)c1c(O)cccc1O,logP,[12],1.23
CC(=O)OCN1C(=O)NC(c2ccccc2)(c2ccccc2)C1=O,logP,[5],2.8
N#Cc1cc(Br)c(O)c(Br)c1,logP,[13],2.7
O=C(O)c1ccccc1C(=O)Nc1cccc2ccccc12,logP,[13],3
CN1C(=O)OC(c2ccccc2)C1=O (stereo not given),logP,[14],1.06
CCS(=O)CCSP(=O)(OC)OC (stereo not given),logP,[15],-0.74
Cc1ccccc1/C=C/[N+](=O)[O-],logP,[16],2.63
CC(=O)Nc1cc(C(C)(C)C)c(O)cc1C,logP,[17],2.18
CC(C)(C)c1cn2c(=O)c3ncn(COCCO)c3nc2[nH]1,logP,[9],0.62
Cc1ccccc1C(=N)c1ccccc1C,logP,[17],3.31

# Reference: the SangsterLogP compilation
